Laboratory results: ChEMBL document CHEMBL1201862, “PubChem BioAssay data set” (2004)
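1) Cells in 96-well plates. 2) Compound, 48 h, 5 concentrations. 3) Linear interpolation between surrounding doses. 4) Unreached endpoint = highest concentration. Abbreviation: GI50, concentration required for 50% inhibition of growth.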 Activity calls are given as the source filed them. Cut-off read from the data, not from the text of the source: active = GI50 up to about 1.1 µM and inactive = higher.

Legend:
Assay in all cases: inhibition of tumour cell growth, NCI panel, 48 h
[1] = tested on: HOP-92
[2] = tested on: CAKI-1
[3] = tested on: SF-539
[4] = tested on: SNB-19
[5] = tested on: MDA-N
[6] = tested on: OVCAR-4
[7] = tested on: Malme-3M
[8] = tested on: SF-295
[9] = tested on: DU-145
[10] = tested on: A498
[11] = tested on: SF-268
[12] = tested on: SK-OV-3
[13] = tested on: SK-MEL-28
[14] = tested on: SK-MEL-5
[15] = tested on: OVCAR-5
[16] = tested on: OVCAR-3
[17] = tested on: SW-620
[18] = tested on: NCI-H460
[19] = tested on: BT-549
[20] = tested on: RXF 393

| SMILES | GI50 [1] | GI50 [2] | GI50 [3] | GI50 [4] | GI50 [5] | GI50 [6] | GI50 [7] | GI50 [8] | GI50 [9] | GI50 [10] | GI50 [11] | GI50 [12] | GI50 [13] | GI50 [14] | GI50 [15] | GI50 [16] | GI50 [17] | GI50 [18] | GI50 [19] | GI50 [20] |
| --- | --- | --- | --- | --- | --- | --- | --- | --- | --- | --- | --- | --- | --- | --- | --- | --- | --- | --- | --- | --- |
| Cc1cccc(/C=N/NC(=S)N(C)CCc2ccccn2)n1 | 0.38 µM (active) | 0.421 µM (active) | 0.407 µM (active) | 0.729 µM (active) | 0.473 µM (active) | 22.9 µM (inactive) | 0.361 µM (active) | 0.383 µM (active) | 0.236 µM (active) | 0.285 µM (active) | 0.278 µM (active) | 0.541 µM (active) | 0.501 µM (active) | 0.314 µM (active) | 4.93 µM (inactive) | 0.0853 µM (active) | 0.361 µM (active) | 0.267 µM (active) | 0.857 µM (active) |  |
| CSC1NC(c2ccc(Cl)cc2)=C(C#N)C(=O)N1C1OCC(OC(C)=O)C(OC(C)=O)C1OC(C)=O (stereo unspecified) | > 100 µM (inactive) | > 100 µM (inactive) | 67.3 µM (inactive) | > 100 µM (inactive) | > 100 µM (inactive) | > 100 µM (inactive) | > 100 µM (inactive) | > 100 µM (inactive) | > 100 µM (inactive) | 34.8 µM (inactive) | > 100 µM (inactive) | > 100 µM (inactive) | > 100 µM (inactive) | 81.1 µM (inactive) | > 100 µM (inactive) | > 100 µM (inactive) | > 100 µM (inactive) | > 100 µM (inactive) | > 100 µM (inactive) |  |
| COc1c(C(=O)CC2c3c(cc4oc(C)cc(=O)c4c3OC)OC(=N)C2c2nc3ccccc3[nH]2)c(O)c(OC)c2occc12 (stereo unspecified) | > 100 µM (inactive) | > 100 µM (inactive) |  | > 100 µM (inactive) | > 100 µM (inactive) | > 100 µM (inactive) | > 100 µM (inactive) | > 100 µM (inactive) | > 100 µM (inactive) | > 100 µM (inactive) | > 100 µM (inactive) | > 100 µM (inactive) | > 100 µM (inactive) | > 100 µM (inactive) | > 100 µM (inactive) | > 100 µM (inactive) | > 100 µM (inactive) | > 100 µM (inactive) | > 100 µM (inactive) | > 100 µM (inactive) |
| COC(=O)c1c(O)ccc2c1c1c(n2Cc2ccccn2)C(=O)c2ccccc2C1=O | 26.5 µM (inactive) | 80.5 µM (inactive) | 17.1 µM (inactive) | 86.5 µM (inactive) | 97.5 µM (inactive) |  | 31.2 µM (inactive) | 20.2 µM (inactive) | 42.4 µM (inactive) | > 100 µM (inactive) | 35.9 µM (inactive) | 21.7 µM (inactive) | 19.2 µM (inactive) | 50.5 µM (inactive) | 56.8 µM (inactive) | 18.1 µM (inactive) |  | 40.3 µM (inactive) | > 100 µM (inactive) | 52.5 µM (inactive) |
| N=C(c1ccc2ccccc2c1)c1ccccc1Cc1ccccc1 | 27.9 µM (inactive) | 55 µM (inactive) | 41.5 µM (inactive) | > 100 µM (inactive) | 24.8 µM (inactive) | 34.7 µM (inactive) |  | 32.2 µM (inactive) | 29.8 µM (inactive) | 82.8 µM (inactive) |  | 43 µM (inactive) | 62.4 µM (inactive) | 37.2 µM (inactive) | 36.8 µM (inactive) | 22.1 µM (inactive) | 37.8 µM (inactive) | 33.6 µM (inactive) | 84.7 µM (inactive) | 5.97 µM (inactive) |
| CCOC(=O)/C(C(N)=O)=C(O)/C(O)=C/C(=O)c1ccc(Cl)cc1 | 21.8 µM (inactive) | 24.1 µM (inactive) |  | 33.3 µM (inactive) | 14.8 µM (inactive) | 34.4 µM (inactive) | 17.9 µM (inactive) | 29.2 µM (inactive) | 14.8 µM (inactive) | > 100 µM (inactive) | 20.6 µM (inactive) | 20.6 µM (inactive) | 24.8 µM (inactive) | 19.9 µM (inactive) | 23.5 µM (inactive) | 21.9 µM (inactive) | 20.5 µM (inactive) | 16 µM (inactive) | 18 µM (inactive) | 15.9 µM (inactive) |
| Nc1ccc(C(=O)Nn2c(-c3ccccc3)nc3ccccc3c2=O)cc1 | > 100 µM (inactive) |  | > 100 µM (inactive) | > 100 µM (inactive) | > 100 µM (inactive) | > 100 µM (inactive) | > 100 µM (inactive) | > 100 µM (inactive) | > 100 µM (inactive) | 32.3 µM (inactive) | > 100 µM (inactive) | > 100 µM (inactive) | > 100 µM (inactive) | > 100 µM (inactive) | > 100 µM (inactive) | > 100 µM (inactive) | > 100 µM (inactive) | > 100 µM (inactive) | > 100 µM (inactive) | > 100 µM (inactive) |
| Cc1n[nH]c(C(F)(F)F)c1/N=N/N(C)C | 8.32 µM (inactive) | 1.64 µM (inactive) | 5.28 µM (inactive) | 15.1 µM (inactive) | > 100 µM (inactive) |  | 16.6 µM (inactive) | 12.1 µM (inactive) | 7.69 µM (inactive) | > 100 µM (inactive) | 11.4 µM (inactive) | 12.5 µM (inactive) | 17.9 µM (inactive) | > 100 µM (inactive) |  | 5.16 µM (inactive) | > 100 µM (inactive) | 10.5 µM (inactive) | 11.7 µM (inactive) | 13 µM (inactive) |
| CN(Cc1ccccc1)c1cc(=O)n(C)c(=O)[nH]1 | > 100 µM (inactive) | > 100 µM (inactive) | > 100 µM (inactive) | > 100 µM (inactive) | > 100 µM (inactive) | > 100 µM (inactive) | > 100 µM (inactive) | > 100 µM (inactive) | > 100 µM (inactive) | 58.2 µM (inactive) | > 100 µM (inactive) | > 100 µM (inactive) | > 100 µM (inactive) | > 100 µM (inactive) | > 100 µM (inactive) | > 100 µM (inactive) | > 100 µM (inactive) | > 100 µM (inactive) | > 100 µM (inactive) |  |
| [N-]=[N+]=CC(=O)OCCCCl | > 100 µM (inactive) | > 100 µM (inactive) |  | > 100 µM (inactive) | > 100 µM (inactive) | > 100 µM (inactive) | > 100 µM (inactive) | > 100 µM (inactive) | > 100 µM (inactive) | > 100 µM (inactive) | > 100 µM (inactive) | > 100 µM (inactive) | > 100 µM (inactive) | > 100 µM (inactive) | > 100 µM (inactive) | > 100 µM (inactive) | > 100 µM (inactive) | 4.37 µM (inactive) | > 100 µM (inactive) | > 100 µM (inactive) |
| CCn1c(-c2ccc(C)cc2)cs/c1=N\C(P(=O)(O)O)P(=O)(O)O | > 100 µM (inactive) | > 100 µM (inactive) | > 100 µM (inactive) | > 100 µM (inactive) | > 100 µM (inactive) |  | > 100 µM (inactive) | > 100 µM (inactive) | > 100 µM (inactive) | > 100 µM (inactive) | > 100 µM (inactive) | > 100 µM (inactive) | > 100 µM (inactive) | 31.6 µM (inactive) | > 100 µM (inactive) | > 100 µM (inactive) | > 100 µM (inactive) | > 100 µM (inactive) | > 100 µM (inactive) | > 100 µM (inactive) |
| Cc1ccc(C(=O)Cn2c(C(=O)/C=C/c3cccs3)nc3ccccc32)cc1 | 93.5 µM (inactive) |  | > 100 µM (inactive) | 58.1 µM (inactive) | 28.1 µM (inactive) | 29.5 µM (inactive) | 24.5 µM (inactive) |  | 82 µM (inactive) | 32.1 µM (inactive) | 32.9 µM (inactive) | > 100 µM (inactive) | 68.5 µM (inactive) | 36.1 µM (inactive) | > 100 µM (inactive) | 31.3 µM (inactive) | 34.2 µM (inactive) | 22.4 µM (inactive) | 34.4 µM (inactive) | 94.6 µM (inactive) |
| O=P1(C(O)/C=C/c2ccccc2)N(Cc2ccccc2)[C@@H]2CCCC[C@H]2N1Cc1ccccc1 (stereo partly specified) | 2.7 µM (inactive) | 13.1 µM (inactive) |  | 6.22 µM (inactive) | 4.62 µM (inactive) | 5.38 µM (inactive) | 2.98 µM (inactive) | 4.42 µM (inactive) | 12.9 µM (inactive) | 3.02 µM (inactive) | 4.05 µM (inactive) | 24 µM (inactive) | 11.2 µM (inactive) | 4.58 µM (inactive) | 10.6 µM (inactive) | 6.64 µM (inactive) | 6.87 µM (inactive) | 3.55 µM (inactive) | 15 µM (inactive) | 7.29 µM (inactive) |
| COc1c2nc(CCl)n(C)c(=O)c2c(OC)c2c(=O)n(C)c(CCl)nc12 | > 100 µM (inactive) | 1.6 µM (inactive) | 3.44 µM (inactive) | 2.11 µM (inactive) | 1.49 µM (inactive) | > 100 µM (inactive) | 1.76 µM (inactive) | 1.84 µM (inactive) | 3.4 µM (inactive) | 2.33 µM (inactive) | 1.48 µM (inactive) |  | 1.85 µM (inactive) | 1.92 µM (inactive) | 2.3 µM (inactive) | 1.84 µM (inactive) | 1.1 µM (active) | 1.97 µM (inactive) | 0.544 µM (active) | 2.07 µM (inactive) |
| O=S(=O)(F)Cc1ccccc1 [PHENYLMETHYLSULFONYLFLUORIDE] | > 100 µM (inactive) | > 100 µM (inactive) | > 100 µM (inactive) | > 100 µM (inactive) | > 100 µM (inactive) | > 100 µM (inactive) | 0.486 µM (active) | > 100 µM (inactive) | > 100 µM (inactive) | > 100 µM (inactive) | > 100 µM (inactive) | > 100 µM (inactive) | > 100 µM (inactive) | > 100 µM (inactive) | > 100 µM (inactive) | > 100 µM (inactive) | > 100 µM (inactive) | > 100 µM (inactive) | > 100 µM (inactive) |  |
